Reference: patent US7241937B2, “Methods and materials for improving plant drought tolerance” (Ceres, Inc., priority 2004, dated 2007)

Test system: NCED3 transgenic seeds
Test: GA3 treatment: germination of NCED3 transgenic R2 seeds on growth medium containing GA3
Assay type: in vivo, rice
Method: GA3 treatment: R2 seeds were surface-sterilized with 20% bleach and germinated on half-strength MS containing 0.4 mL/L Finale and filter-sterilized GA3 (gibberellin) to final concentrations of 0, 10, 100, 250, 500 or 1,000 μM.
ABA and GA3 (gibberellin) can act antagonistically in seed germination. To determine whether GA3 could release the prolonged dormancy evident in the NCED3 transgenic seeds, GA3 was added to the growth medium on which the seeds were placed for germination. […] Thus, addition of exogenous of GA3 can, at least in part, overcome the off-type of prolonged dormancy.

## C=C1C[C@]23C[C@@]1(O)CC[C@H]2[C@@]12C=C[C@H](O)[C@@](C)(C(=O)O1)[C@H]2[C@@H]3C(=O)O [GA3]
GA3 at a concentration as low as 10 μM in the growth medium
  seed germination (release of prolonged dormancy): accelerated germination
Higher concentrations of GA3
  seedling elongation: more elongated
Higher concentrations of GA3 (100-1,000 μM) compared with 10 μM
  seed germination: did not significantly improve seed germination
